Data taken from US11884933B2, “Supported in vitro developed tissue culture and culturing methods” (IMBA—INSTITUT FÜR MOLEKULARE BIOTECHNOLOGIE GMBH, priority 2016, dated 2024).
“Also recorded” adds a separate entry of the source.

Assays:
[1] = system: microfilament patterned organoids; test: CHIR pulse after neuroepithelial budding in microfilament organoids; format: cell-based, human
From the text: At day 3, half media was changed with EB media without bFGF and Y-27632. On day 5, EBs were moved with an angled cut P200 tip to 24-well low-attachment plates (Sigma, cat. #CLS3473) with neural induction media (NI) as previously described in WO 2014/090993 A1 (incorporated herein by reference) (FIG. 1a, step 3). Media was changed every other day. On day 11, or when polarized neural ectoderm was visible on the surface, organoids were transferred to droplet of Matrigel as previously described in WO 2014/090993 A1 but kept in NI media (FIG. 1a, transition from step 3 to 4). At day 13 (2 days after Matrigel embedding), media was changed to an improved differentiation media-A (IDMA): 1:1 of DMEM/F12 and Neurobasal (Invitrogen, cat. #21103049), 0.5% N2 supplement (Invitrogen, cat. #17502048), 2% B27-vitamin A (Invitrogen, cat. #12587010), 0.25% insulin solution (Sigma, cat. #I9278-5ML), 50 μM 2-mercaptoethanol, 1% Glutamax, 0.5% MEM-NEAA, and 1% Penicillin-Streptomycin (Sigma, cat. *P0781). Additionally, CHIR 99021 (Tocris, cat. #4423) at 3 μM was added from day 13 to 16. Media was changed every other day and organoids were moved to a spinning bioreactor or orbital shaker as described previously in WO 2014/090993 A1, on day 18 (FIG. 1a, step 5). After moving to the shaker, media was changed every 3-4 days. Shaking speed was calculated based on the throw of the shaker. […]

H1 spheroids = test: Three day CHIR pulse in spheroids, germ layer staining; format: cell-based, human; details: 3-day CHIR pulse alone, day 40 spheroids
Experimental: Organoids were fixed in 4% paraformaldehyde for 20 min at room temperature and washed with PBS three times for 10 min each at room temperature before allowing to sink in 30% sucrose at 4° C. […] Statistical analysis of quantifications performed from imaging data was performed using Student's t-test for significance.

H9 enCORs = test: Cortical plate / basement membrane formation in enCORs with dissolved ECM components or GM6001; format: cell-based, human
Experimental: At day 20, media was changed to an improved differentiation+A (IDM+A): 1:1 of DMEM/F12 and Neurobasal, 0.5% N2 supplement, 2% B27+vitamin A, 0.25% insulin solution, 50 μM 2-mercaptoethanol, 1% Glutamax, 0.5% MEM-NEAA, 1% Penicillin-Streptomycin, 0.4 mM Vitamin C, and 1.49 g HEPES per 500 ml to control pH levels. Alternatively, media can be pH controlled with further bicarbonate buffering with the addition of 1 mg/ml sodium bicarbonate. At day 40, media was changed to IDM+A with 1 ml dissolved Matrigel per 50 ml media by slowly thawing the Matrigel on ice and addition to cold media to dissolve (FIG. 1a, step 6).
For treatment with matrix metalloprotease inhibitor GM6001 (Selleck Chemicals S7157), a final concentration of 3 μM was added beginning on day 30.

Cc1c[nH]c(-c2cnc(NCCNc3ccc(C#N)cn3)nc2-c2ccc(Cl)cc2Cl)n1 [CHIR, CHIR99021]
neuroepithelial bud morphology ([1]; CHIR 3 μM, day 13 to 16, after Matrigel embedding): larger, more continuous buds of neuroepithelium; also recorded: dramatic lateral expansion of neuroepithelial tissues and the generation of larger lumens with surrounding continuous neuroepithelium
dorsal brain region identity staining (Emx1, Tbr1, Tbr2) ([1]; microfilament patterned organoids treated with CHIR): all large lobes of brain tissue within microfilament patterned organoids treated with CHIR to be dorsal cortex; also recorded: large Emx1+ regions; also recorded: virtually all large regions stained positive for dorsal cortical markers Tbr1 and Tbr2
germ layer induction and organoid morphology (H1 spheroids): did not influence germ layer induction or overall organoid morphology

CNC(=O)[C@H](Cc1c[nH]c2ccccc12)NC(=O)[C@@H](CC(=O)NO)CC(C)C [GM6001]
CP formation (H9 enCORs; GM6001 3 μM continuous from day 30, 60-day enCORs): no signs of CP formation; also recorded: did not result in CP formation by 60 days

CCO [ethanol]
ethanol concentration in the media (150 mM dose, within a day): approximately 60 mM
course of ethanol concentration in the media (all doses tested): progressive decrease in concentration over time
equivalent blood alcohol content (equivalent of approximately 60 mM): 0.27 % by volume

laminin
CP formation (H9 enCORs; dissolved laminin 35 μg/ml from day 40, 60-day enCORs): no evidence of CP formation; also recorded: did not recapitulate the extent of CP formation seen with Matrigel
